# Test results reported in patent US6780641B2, “Immortalized human microglia cell line” (University of British Columbia, priority 2000, dated 2004).
# “Also recorded” adds a separate entry of the source.
# What was measured:
# [1] = tested on: embryonic human microglia; assay: GM-CSF stimulated proliferation of embryonic human microglia; assay type: cell-based; settings: GM-CSF 8 μg/ml for 9-12 days
# Description: It is also desirable that, for the last part of this time, microglia are exposed to granulocyte macrophage colony stimulating factor (GM-CSF) at final concentration of 8 ug/ml for 9-12 days with a medium change every 3 days. GM-CSF treatment stimulated proliferation of microglia results in a 3-4 fold increase in microglial population.
# As illustrated by FIG. 1, an amphotropic replication-incompetent retroviral vector encoding v-myc oncogene (transcribed from mouse leukemia virus LTR plus neomycin-resistant gene transcribed from a SV40 early promotor) was used to infect human microglia inducing propagation of immortalized human microglial cell lines. This amphotropic vector, PASK 1.2, was generated using the ecotropic retroviral vector encoding v-myc (obtained from the American Type Culture Collection, Rockville, Md.) to infect PA318 amphotropic packaging cell line. Microglia were exposed to granulocyte macrophage colony stimulating factor (GM-CSF) at final concentration of 8 μg/ml for 9-12 days with medium change every 3 days. GM-CSF treatment stimulated proliferation of microglia resulting in 3-4 folds increase in population. Microglia treated with GM-CSF for 9-12 days were subjected to retrovirally mediated transduction of v-myc by PASK 1.2 construct and subsequent cloning.
# HMO6.A1 cells [2] = assay: RT-PCR analysis of gene expression in agent stimulated HMO6.A1 cells; assay type: cell-based, human; settings: for P2Y2 receptor expression / B7-2 mRNA expression: HMO6.A1, RT-PCR; for B7-2 mRNA expression: 24 hr incubation; for Stimulated HMO6 cell expressed active substance(s): RT-PCR, agent stimulated HMO6 cells
# Description: The information of Table E1 is provided merely as a convenience to the reader and utilizes conventional gene sequences.
# Sense and antisense primers of each primer pair given by Table E1 were set at a different exon, respectively, to avoid DNA contamination. To assess the character of HMO6.A1 cells, the expression of cytokines (IL-1β, -2, -3, -4, -5, -6, -7, -8, -9, -10, -11, -12, -13, -15, and TNF-α), chemokines (macrophage inflammatory protein (MIP)-1α, MIP-1β, and monocyte chemoattractant protein (MCP)-1) was examined by RT-PCR. Total RNA was extracted using Trizol reagent (GIBCO-BRL, Gaithersburg, Md.). Complimentary DNA (cDNA) templates from each sample were prepared from 2 μg of total RNA primed with oligo dT primers (Pharmacia, Gaithersburg, Md.) using 400 units of MMLV reverse transcriptase (GIBCO-BRL) followed by 25 PCR amplification cycles (94° C. for 30 seconds, annealing at 60° C. for 60 seconds, and extension at 72° C. for 90 seconds). This cycle number allowed a linear cDNA dose-response. Glyceraldehyde-3-phosphate dehydrogenase (G3PDH) was used as a reaction standard [Ercolani et al., J. Biol. Chem. 263: 15335-15341 ([…])].
# To confirm the purity of cell preparation, cDNA from microglia-enriched cultures were amplified for B7-2 (CD86, for microglia); GFAP (a cell type-specific marker for astrocytes); myelin basic protein (MBP, for oligodendrocytes); and neurofilament-M (NF-M, for neurons). For characterization of HMO6.A1 cells, mRNA expression of marker proteins specific for each cell type was also investigated. Gene expression of CD68, P2Y1 purinergic receptor (P2Y1R), P2Y2R, CXCR4 which are expressed in embryonic human microglia (HM) was also examined in HMO6.A1 cells. […] of each PCR product was analyzed by 1.5% agarose gel electrophoresis. Authentic bands were determined by selective enzyme digestion.
# […] LPS at 100 ng/ml was used in microglial cultures since LPS is a potent activator of microglia [Gebicke-Haeter et al., J. Neurosci. 9: 187-194 (1989); Suzumura et al., Brain Res. 545: 301-306 (1991)].
# [3] = tested on: normal human microglial cells; assay: ELISA of cytokines/chemokines released from normal human microglia (HM); assay type: cell-based; settings: for IL-6 levels in the culture supernatant: cell type (HM or HMO6.A1) not given; for levels of IL-8 in the supernatant: versus non-treated controls
# Description: (§1) Production of TNF-α, IL-1β, IL-6, IL-8 or MIP-1α in normal human microglial cells or HMO6.A1 cells was determined in spent culture supernatants using ELISA kits specific for human TNF-α, IL-1β, IL-6, IL-8 or MIP-1α (R&D Systems, capable of detecting TNF-α at 4.4 pg/ml, IL-1β at 1 pg/ml, IL-6 at 0.70 pg/ml, IL-8 at 10 pg/ml and MIP-1α at 10 pg/ml). At the end of each experiment, culture supernatants were collected, centrifuged, and stored at −70° C.
# (§2) FIGS. 6A-6E are graphs presenting ELISA analyses of cytokines and chemokines released from normal human microglia and HMO6 immortalized human microglia cell line. Cells were plated in 6-well plates, stimulated for 48 hours with or without 20 ug/ml β-amyloid or 10 ng/ml LPS, and then cytokine/chemokine production in spent media was measured. Values represent mean±SEM from 3 experiments.
# HMO6.A1 cells [4] = assay: ELISA of cytokines/chemokines released from HMO6.A1 cells; assay type: cell-based, human; settings: for MIP-1α amount of release / levels of IL-8 in the supernatant: HMO6.A1, 48 hours; for levels of IL-8 in the supernatant: versus non-treated controls
# Description: as §1, §2
# HMO6.A1 cells [5] = assay: Fura-2 Ca2+ fluorescence in HMO6.A1 cells; assay type: cell-based, human; settings: ATP 100 μM; ionomycin 10 μM after ATP perfusion; n=7 cells
# Description: The cultured HMO6.Al cells were loaded for 25 min with the Ca^2+ indicator fura-2-acetoxymetethylester (fura-2AM). The dye was applied with pleuronic acid (both at concentrations of 1 μM) to normal physiological solution (PSS) at room temperature (20-22° C.). Following a 5 min wash in dye-free solution, the coverslips were placed on the stage of a Zeiss Axiovert inverted microscope containing a ×40 quartz objective lens. Alternating excitation wavelengths (340/380 nm) of UV light were applied at intervals of 8 s and fluorescence signals were obtained at 510 nm of emission light (bandwidth of 4 nm) from 8-20 cells in the field of view. Signals were acquired from a digital camera (DVC-1310, DVC Co., Austin, Tex.) and were processed using an imaging system (Empix, Mississauga, ON) to determine ratios of the 340 nm and 380 nm intensities which have been used as quantitative measures of fluorescence levels in this work.
# All studies were done at room temperature (20-22° C.) and values obtained from multiple cells are reported as mean ±SEM with statistical significance for p≦0.05 using the Student's t-test.
# The purinergic agonist ATP (at 100 μM) was applied to HMO6.A1 cells using calcium sensitive fluorescence microscopy. The results from a representative experiment are presented by FIGS. 3A and 3B which show an ATP-induced increase in [Ca^2+]i from n=7 cells. […]
# [6] = tested on: embryonic human microglia (HM); assay: RT-PCR analysis of gene expression in embryonic human microglia (HM) after Aβ25-35/LPS; assay type: cell-based; settings: 6 hr
# [7] = HMO6, treatment time not stated
molecule,measurement,setting,value
GM-CSF: granulocyte-macrophage colony-stimulating factor (GIBCO-BRL),increase in microglial population,[1],3-4 fold
same,P2Y2 receptor expression,HMO6.A1 cells [2],expressed
same,B7-2 mRNA expression,HMO6.A1 cells [2],not
lipopolysaccharide [LPS],IL-6 levels in the culture supernatant,[3]; 48 hours stimulation,increased
same,release of IL-1β into culture medium,"[3]; HM, 48 hours stimulation",demonstrated
same,levels of IL-8 in the supernatant,"[3]; HM, 48 hours",greater
same,CXCR4 expression,"HMO6.A1 cells [2]; HMO6.A1, 6 hr",increased
same,TNF-α expression,"HMO6.A1 cells [2]; HMO6.A1, 6 hr incubation",not induced
same,P2Y2 receptor expression,HMO6.A1 cells [2],expressed
same,B7-2 mRNA expression,HMO6.A1 cells [2],not
same,TNF-α expression,"HMO6.A1 cells [2]; HMO6.A1, after 24 hr",induced
same,MIP-1α amount of release,HMO6.A1 cells [4],very low
same,levels of IL-8 in the supernatant,HMO6.A1 cells [4],greater
TNF-α,Expression of MIP-1α,HMO6.A1 cells [2]; [7],newly induced
same,Expression of TNF-α,HMO6.A1 cells [2]; [7],newly induced
same,MIP-1α expression,"HMO6.A1 cells [2]; HMO6.A1, 24 hr treatment",detected; also recorded: induced
same,P2Y2 receptor expression,HMO6.A1 cells [2],induced; also recorded: expressed
same,B7-2 mRNA expression,HMO6.A1 cells [2],induced; also recorded: expressed
same,TNF-α gene expression,"HMO6.A1 cells [2]; HMO6.A1, treatment for 4 hr",recognized; also recorded: induced
same,Stimulated HMO6 cell expressed active substance(s),HMO6.A1 cells [2]; MIP-1α expression,MIP-1α
same,Stimulated HMO6 cell expressed active substance(s),HMO6.A1 cells [2]; TNF-α expression,TNF-α
C[C@H](CCC(=O)O)C[C@H](C)C[C@H](C)C(=O)/C=C(\O)[C@H](C)C[C@H](C)C/C=C/[C@@H](C)[C@@H](O)[C@@H](C)[C@@H](O)C[C@@H]1CC[C@@](C)([C@H]2CC[C@@](C)([C@@H](C)O)O2)O1 [ionomycin],[Ca2+]i response,HMO6.A1 cells [5],considerably larger than the ATP-induced response
NH2-GSNKGAIIGLM-COOH (H-GSNKGAIIGLM-OH) [Aβ25-35],IL-6 levels in the culture supernatant,[3]; 48 hours stimulation,not increased
same,MIP-1α levels,"[3]; HM, 48 hours",elevated
same,release of IL-1β into culture medium,"[3]; HM, 48 hours stimulation",demonstrated
same,TNF-α production (ELISA),"[3]; HM, 48 hours stimulation, spent media",marked increase
same,levels of IL-8 in the supernatant,"[3]; HM, 48 hours",greater
same,CXCR4 expression,"HMO6.A1 cells [2]; HMO6.A1, 6 hr",increased
same,IL-1β expression,"HMO6.A1 cells [2]; HMO6.A1, 6 hr",no change
same,IL-6 expression,"HMO6.A1 cells [2]; HMO6.A1, 6 hr",no change
same,IL-8 mRNA expression,"HMO6.A1 cells [2]; HMO6.A1, 6 hr",elevated
same,IL-10 expression,"HMO6.A1 cells [2]; HMO6.A1, 6 hr",not detected
same,IL-12 expression,"HMO6.A1 cells [2]; HMO6.A1, 6 hr",elevated
same,MCP mRNA expression,"HMO6.A1 cells [2]; HMO6.A1, 6 hr",elevated
same,MIP-1α mRNA expression,"HMO6.A1 cells [2]; HMO6.A1, 6 hr",not expressed
same,MIP-1β expression,"HMO6.A1 cells [2]; HMO6.A1, 6 hr",No change
same,TNF-α expression,"HMO6.A1 cells [2]; HMO6.A1, 6 hr incubation",not induced
same,TNF-α expression,"HMO6.A1 cells [2]; HMO6.A1, after 24 hr",induced
same,TNF-α expression,"HMO6.A1 cells [2]; HMO6.A1, after 24 hr, listed as Aβ",detected; also recorded: induced
same,Stimulated HMO6 cell expressed active substance(s),HMO6.A1 cells [2]; Elevated IL-12 expression,Elevated IL-12
same,Stimulated HMO6 cell expressed active substance(s),HMO6.A1 cells [2]; TNF-α expression,TNF-α
same,MIP-1α amount of release,HMO6.A1 cells [4],very low
same,TNF-α production (ELISA),"HMO6.A1 cells [4]; HMO6.A1, 48 hours stimulation, spent media",marked increase
same,levels of IL-8 in the supernatant,HMO6.A1 cells [4],greater
same,IL-1β expression,[6],slightly increased
same,IL-4 expression,[6],not recognized
same,IL-8 mRNA,[6],up-regulated
same,IL-10 expression,[6],increased
same,IL-12 expression,[6],elevated
same,IL-13 expression,[6],not recognized
same,MCP mRNA,[6],up-regulated
same,MIP-1α mRNA,[6],up-regulated
same,MIP-1β mRNA,[6],up-regulated
same,TNF-α expression,[6],markedly elevated
"IL-1β: Recombinant human IL-1β (10 ng/ml, R&D Systems)",P2Y2 receptor expression,HMO6.A1 cells [2],expressed
same,B7-2 mRNA expression,HMO6.A1 cells [2],not
same,Stimulated HMO6 cell expressed active substance(s),HMO6.A1 cells [2],None
Nc1ncnc2c1ncn2[C@@H]1O[C@H](COP(=O)(O)OP(=O)(O)OP(=O)(O)O)[C@@H](O)[C@H]1O [ATP],[Ca2+]i response,HMO6.A1 cells [5],increase; also recorded: rapid and transient
"IFN-γ: recombinant human IFN-γ (500 IU/ml, LG Chem) (protein, UniProt P01579 24-161, looked up) Interferon gamma: QDPYVKEAENLKKYFNAGHSDVADNGTLFLGILKNWKEESDRKIMQSQIVSFYFKLFKNFKDDQSIQKSVETIKEDMNVKFFNSNKKKRDDFEKLTNYSVTDLNVQRKAIHELIQVMAELSPAAKTGKRKRSQMLFRG",P2Y2 receptor expression,HMO6.A1 cells [2],expressed
same,B7-2 mRNA expression,HMO6.A1 cells [2],not
